According to US20260109729A1, “RUTHENIUM COMPLEXES FOR INHIBITION OF GALECTINS, METHOD OF THEIR PREPARATION, AND USE THEREOF” (priority 2023, published 2026):
Read-outs that look alike come from different tables or passages of the source.

Tests used:
human galectin-3-CRD = target: T1, human galectin-3-CRD (Homo sapiens, UniProt P17931); assay: Fluorescence anisotropy competitive inhibition assay, galectin 3; assay type: binding; conditions: average and standard deviation; for Ki: Ki calculated from IC50 with online calculator, read-out: Ki against human galectin 3-CRD; for IC50: protein 50 nM, probe 5 nM, at least three measurements, read-out: IC50 against human galectin-3-CRD under measured condition
T1 construct: human galectin-3-CRD; fused on or other part: N-terminal His6-GST tag, cleaved off by TEV protease before the fluorescence anisotropy test
Procedure: As a competitive fluorescent probe, the compound 3,3′-dideoxy-3-[4-(fluorescein-5-yl-carbonylamino-methyl)-1H-1,2,3-triazol-1-yl]-3′-[4-(3-fluorophenyl)-1H-1,2,3-triazol-1-yl]-1,1′-sulfanediyl-di-β-D-galactopyranoside was used in the measurements. Fluorescence anisotropy was measured using a Tecan Spark multimode microplate reader equipped with fluorescence polarization filters and black polystyrene round-bottomed microtiter plates (Corning®, 384 wells) in samples with a final volume of […]. The samples were incubated in the dark for 30 minutes before measurement.
The Kd values were obtained using nonlinear regression performed by GraphPad Prism software (version 10.0.2, GraphPad, USA) for direct ligand-protein interaction using the formula: A=A0+(Amax−A0)×([G]/(Kd+[G])), where A0 is the anisotropy of the probe in the absence of galectin, Amax is the maximum achieved anisotropy of the probe with increasing galectin concentration, [G] is the total galectin concentration in a measured sample, and A is the measured anisotropy of the measured sample. […] Raw anisotropy data from the reader were plotted against concentration using GraphPad Prism software (version 10.0.2, GraphPad, USA) and nonlinear fitting “[Inhibitor]vs. response—Variable slope (four parameters)” analysis was used to calculate the IC50 values (half-maximal inhibitory concentration) for each titration. The IC50 values from each titration experiment were then used to calculate the inhibition constant Ki using an online calculator (http://websites.umich.edu/-shaomengwanglab/software/calc_ki/index.html).

human galectin-1 [1] = target: T2, human galectin-1 (Homo sapiens, UniProt P09382); assay: Fluorescence anisotropy competitive inhibition assay, galectin 1; assay type: binding; set-up: His6-GST (N, cleaved yes); made in house; host or cells: E. coli BL21 RILP; conditions: for Ki: Ki calculated from IC50 with online calculator, read-out: Ki against human galectin-1; for Ki / IC50: average and standard deviation; for affinity to galectin-1 compared with the fluorescent probe: exact Ki not determinable, given as possible range; for IC50: protein 500 nM, probe 100 nM, at least three measurements, read-out: IC50 against human galectin-1 under measured condition
Procedure: Analytical Biochemistry 2004, 334 (1), 36-47, page 39, paragraph “Fluorescence Polarization”. As a competitive fluorescent probe, the compound 3,3′-dideoxy-3-[4-(fluorescein-5-yl-carbonylamino-methyl)-1H-1,2,3-triazol-1-yl]-3′-[4-(3-fluorophenyl)-1H-1,2,3-triazol-1-yl]-1,1′-sulfanediyl-di-β-D-galactopyranoside was used in the measurements. Fluorescence anisotropy was measured using a Tecan Spark multimode microplate reader equipped with fluorescence polarization filters and black polystyrene round-bottomed microtiter plates (Corning®, 384 wells) in samples with a final volume of […]. The samples were incubated in the dark for 30 minutes before measurement.
The Kd values were obtained using nonlinear regression performed by GraphPad Prism software (version 10.0.2, GraphPad, USA) for direct ligand-protein interaction using the formula: A=A0+(Amax−A0)×([G]/(Kd+[G])), where A0 is the anisotropy of the probe in the absence of galectin, Amax is the maximum achieved anisotropy of the probe with increasing galectin concentration, [G] is the total galectin concentration in a measured sample, and A is the measured anisotropy of the measured sample. […] Raw anisotropy data from the reader were plotted against concentration using GraphPad Prism software (version 10.0.2, GraphPad, USA) and nonlinear fitting “[Inhibitor]vs. response—Variable slope (four parameters)” analysis was used to calculate the IC50 values (half-maximal inhibitory concentration) for each titration. The IC50 values from each titration experiment were then used to calculate the inhibition constant Ki using an online calculator (http://websites.umich.edu/-shaomengwanglab/software/calc_ki/index.html). The used model is described in the following publication: Development and optimization of a binding assay for the XIAP BIR3 domain using fluorescence polarization, Analytical Biochemistry 2004, 332 (2), 261-273.

human galectin-1 [2] = target: T2, human galectin-1; conditions: read-out: IC50 against human galectin-1; competitive ELISA, immobilized asialofetuin, His6-GST-Gal-1; average and standard deviation, at least 3 measurements
Procedure: (§1) An immobilized competitive ligand, asialofetuin (ASF), a glycoprotein terminated with LacNAc residues interacting with galectins, was used. Wells of microtiter plates (96-well BRAND plates-F-pureGrade, BRAND, Germany) were coated with ASF ([…] in 0.1M CO3^2−/HCO3^− buffer pH 9-9.8; 50 μL per well) and incubated overnight in a humid chamber at […]. Subsequently, wells were washed with 1×200 μL PBS (137 mM NaCl, 2.7 mM KCl, 8 mM Na2HPO4, and 2 mM KH2PO4, pH 7.4). PBS-Tween washes were performed 3×5 min following each subsequent step. The wells were blocked with 3% BSA in PBS (200 μL per well) and incubated for 1 hour at room temperature. Increasing concentrations of inhibitors in PBS buffer were mixed with His6-GST-Gal-3 or His6-GST-Gal-1 (target concentration 5 or 10 μM) and incubated in wells with ASF for 1 hour. […] The signal intensity was measured spectrophotometrically using the Multidetection reader Infinititte M1000 PRO (Tecan Group Ltd, CH) at 450 nm and corresponds to the amount of bound galectin. The respective inhibitory constant (IC50) was calculated from nonlinear regression (dose-response inhibition slope) of sigmoidal curves using GraphPad Prism software (version 10.0.2, GraphPad, USA).

human galectin-3 = target: T3, human galectin-3 (Homo sapiens, UniProt P17931); assay: Competitive ELISA with immobilized asialofetuin, galectin 3; assay type: binding; conditions: His6-GST-Gal-3, average and standard deviation, at least 3 measurements, read-out: IC50 against human galectin-3
T3 construct: made in house; host or cells: E. coli BL21 RILP
Procedure: as §1

HEK-293 = assay: MTT cytotoxicity assay, HEK-293; assay type: cell-based, human; conditions: embryonic kidney control cell line, 24-72 hours incubation
Procedure: (§2) This assay is based on the reduction of the yellow soluble 3-[4,5-dimethylthiazol-2-yl]-2,5-diphenyl tetrazolium bromide (MTT) to insoluble formazan (blue star-shaped crystals). The reaction takes place on the mitochondrial membrane of living cells. Subsequently, the formazan is dissolved by adding a strong detergent (dimethyl sulfoxide, DMSO), and the color is evaluated spectrophotometrically at a wavelength of 570-595 nm.
(§3) Human cell lines derived from ovarian carcinoma (A2780, SK-OV-3), breast carcinoma (MDA-MB-231, MCF-7), and non-tumor epithelial line MCF-10A were used for the cytotoxicity test. Additionally, a cell line derived from embryonic kidney cells HEK293 was used as a control. A2780 cells were cultured in RPMI 1640 medium (Sigma-Aldrich) containing 10% fetal bovine serum (Biochrom AG), 2 mM L-glutamine (Gibco), and 100 U/mL penicillin/streptomycin (Biosera). SK-OV-3 cells were cultured in McCoy's medium (Sigma-Aldrich) containing 10% fetal bovine serum (Biochrom AG) and 100 U/mL penicillin/streptomycin (Biosera). […] After dissolving the blue crystals, the absorbance was measured in the wells of the plate on an ELISA Reader (Multidetection reader Infinititte M1000 PRO (Tecan Group Ltd, CH)) at a wavelength of 570-595 nm. Evaluation of IC50 as the inflection point of the curve of measured absorbance values using the GraphPad Prism software (version 10.0.2, GraphPad, USA).

A2780 = assay: MTT cytotoxicity assay, A2780; assay type: cell-based, human; conditions: ovarian carcinoma, 24-72 hours incubation
Procedure: as §2, §3

SK-OV-3 = assay: MTT cytotoxicity assay, SK-OV-3; assay type: cell-based, human; conditions: ovarian carcinoma, 24-72 hours incubation
Procedure: as §2, §3

MDA-MB-231 = assay: MTT cytotoxicity assay, MDA-MB-231; assay type: cell-based, human; conditions: breast carcinoma, 24-72 hours incubation
Procedure: as §2, §3

MCF-7 = assay: MTT cytotoxicity assay, MCF-7; assay type: cell-based, human; conditions: breast carcinoma, 24-72 hours incubation
Procedure: as §2, §3

MCF-10A = assay: MTT cytotoxicity assay, MCF-10A; assay type: cell-based, human; conditions: non-tumor epithelial line, 24-72 hours incubation
Procedure: as §2, §3

T1 sequence (P17931 114-250 limits assumed): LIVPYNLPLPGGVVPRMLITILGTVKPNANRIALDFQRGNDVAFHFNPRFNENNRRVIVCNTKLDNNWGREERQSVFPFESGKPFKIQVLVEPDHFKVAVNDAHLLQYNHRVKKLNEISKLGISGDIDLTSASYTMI
T2 sequence (P09382 whole entry): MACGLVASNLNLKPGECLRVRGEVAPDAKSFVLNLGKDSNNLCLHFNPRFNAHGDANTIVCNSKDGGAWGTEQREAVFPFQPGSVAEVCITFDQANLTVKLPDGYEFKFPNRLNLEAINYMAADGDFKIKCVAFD
T3 sequence (P17931 whole entry): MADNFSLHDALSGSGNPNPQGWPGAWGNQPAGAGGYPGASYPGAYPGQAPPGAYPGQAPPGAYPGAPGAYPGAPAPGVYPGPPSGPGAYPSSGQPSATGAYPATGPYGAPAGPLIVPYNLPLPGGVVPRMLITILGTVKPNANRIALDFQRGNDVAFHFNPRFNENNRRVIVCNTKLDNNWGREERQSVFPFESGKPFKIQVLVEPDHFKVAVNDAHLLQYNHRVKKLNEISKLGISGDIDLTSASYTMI

Substance	Ki (human galectin-3-CRD) [µM]	IC50 (human galectin-3-CRD) [µM]	Ki (human galectin-1 [1]) [µM]	affinity to galectin-1 compared with the fluorescent probe (human galectin-1 [1])	IC50 (human galectin-1 [1]) [µM]	IC50 (human galectin-1 [2]) [µM]	IC50 (human galectin-3) [µM]	IC50 (HEK-293) [µM]	IC50 (A2780) [µM]	IC50 (SK-OV-3) [µM]	IC50 (MDA-MB-231) [µM]	IC50 (MCF-7) [µM]	IC50 (MCF-10A) [µM]
Ruthenium Complex with Benzene and Cl Ligands and PF6^− Counterions [Compound 7]	3.54 ± 0.32	16.8 ± 1.5	< 0.005	significantly better affinity to galectin-1 than used fluorescent probe	0.307 ± 0.033	–	–	–	–	–	–	–	–
Ruthenium Complex with Hexamethylbenzene and Cl Ligands and PF6^− Counterions [Compound 8]	43.4 ± 13	205 ± 63	0.114 ± 0.011	–	0.498 ± 0.026	–	–	–	–	–	–	–	–
Ruthenium Complex with p-Cymene and Cl Ligands and BF4^− Counterions [Compound 5]	10.7 ± 1.9	50.7 ± 9	< 0.005	significantly better affinity to galectin-1 than used fluorescent probe	0.187 ± 0.004	–	–	–	–	–	–	–	–
Ruthenium Complex with p-Cymene and Cl Ligands and Cl^− Counterions [Compound 4]	21.2 ± 2.7	100 ± 12	0.018 ± 0.011	–	0.328 ± 0.018	0.026 ± 0.004	87.2 ± 4.4	158 ± 42	> 200	> 200	> 200	> 200	> 200
Ruthenium Complex with p-Cymene and Cl Ligands and PF6^− Counterions [Compound 6]	15.2 ± 0.2	71.7 ± 0.84	< 0.005	significantly better affinity to galectin-1 than used fluorescent probe	0.231 ± 0.017	–	104 ± 38	174 ± 28	–	> 200	141 ± 8	–	–
Ruthenium Complex with p-Cymene and I Ligands and I^− Counterions [Compound 9]	19 ± 3.3	89.8 ± 16	0.037 ± 0.009	–	0.37 ± 0.016	–	–	–	–	–	–	–	–
Ruthenium Complex with p-Cymene and I Ligands and PF6^− Counterions [Compound 10]	15.6 ± 1.8	73.5 ± 8.1	0.023	–	0.347 ± 0.013	–	–	–	–	–	–	–	–
